This experiment has as its target T1, p-glycoprotein (Homo sapiens, UniProt P08183).
T1 construct: Multidrug-resistant and -sensitive cells of the T-lymphoblastoid leukemia cell lines CCRF-VCR 1000 and CCRF-CEM are withdrawn from the cell culture; endogenous in cells; host or cells: CCRF-VCR 1000 (multidrug-resistant); CCRF-CEM (sensitive)
Put plainly: Measurement of P-glycoprotein inhibition (Rhodamine 123 accumulation). Format: cell-based. As to the method:
Multidrug-resistant and -sensitive cells of the T-lymphoblastoid leukemia cell lines CCRF-VCR 1000 and CCRF-CEM are withdrawn from the cell culture and harvested by centrifugation. The cells are taken up in RPMI medium (pH=7.3) without fetal calf serum and incubated at 37° C. for 30 min with the rising concentrations of resistance modulators. […] The excitation wavelength is 488 nm.
The number of the investigated compounds correspond to the numbers in the examples.

The values that follow come from US5925642A, “Pyridopyrimidines” (Byk Gulden Lomberg Chemische Fabrik GmbH, priority 1995, dated 1999).

What is called EC50 is the concentration giving half of the maximal effect. Read a low EC50 as an effect from little substance. The pEC50 is the EC50 on a negative log10 scale, so that one unit is a factor of ten. Lower therefore signals a high EC50.

Structures can show the parent of a compound that is named as a salt.

T1 sequence (P08183 whole entry): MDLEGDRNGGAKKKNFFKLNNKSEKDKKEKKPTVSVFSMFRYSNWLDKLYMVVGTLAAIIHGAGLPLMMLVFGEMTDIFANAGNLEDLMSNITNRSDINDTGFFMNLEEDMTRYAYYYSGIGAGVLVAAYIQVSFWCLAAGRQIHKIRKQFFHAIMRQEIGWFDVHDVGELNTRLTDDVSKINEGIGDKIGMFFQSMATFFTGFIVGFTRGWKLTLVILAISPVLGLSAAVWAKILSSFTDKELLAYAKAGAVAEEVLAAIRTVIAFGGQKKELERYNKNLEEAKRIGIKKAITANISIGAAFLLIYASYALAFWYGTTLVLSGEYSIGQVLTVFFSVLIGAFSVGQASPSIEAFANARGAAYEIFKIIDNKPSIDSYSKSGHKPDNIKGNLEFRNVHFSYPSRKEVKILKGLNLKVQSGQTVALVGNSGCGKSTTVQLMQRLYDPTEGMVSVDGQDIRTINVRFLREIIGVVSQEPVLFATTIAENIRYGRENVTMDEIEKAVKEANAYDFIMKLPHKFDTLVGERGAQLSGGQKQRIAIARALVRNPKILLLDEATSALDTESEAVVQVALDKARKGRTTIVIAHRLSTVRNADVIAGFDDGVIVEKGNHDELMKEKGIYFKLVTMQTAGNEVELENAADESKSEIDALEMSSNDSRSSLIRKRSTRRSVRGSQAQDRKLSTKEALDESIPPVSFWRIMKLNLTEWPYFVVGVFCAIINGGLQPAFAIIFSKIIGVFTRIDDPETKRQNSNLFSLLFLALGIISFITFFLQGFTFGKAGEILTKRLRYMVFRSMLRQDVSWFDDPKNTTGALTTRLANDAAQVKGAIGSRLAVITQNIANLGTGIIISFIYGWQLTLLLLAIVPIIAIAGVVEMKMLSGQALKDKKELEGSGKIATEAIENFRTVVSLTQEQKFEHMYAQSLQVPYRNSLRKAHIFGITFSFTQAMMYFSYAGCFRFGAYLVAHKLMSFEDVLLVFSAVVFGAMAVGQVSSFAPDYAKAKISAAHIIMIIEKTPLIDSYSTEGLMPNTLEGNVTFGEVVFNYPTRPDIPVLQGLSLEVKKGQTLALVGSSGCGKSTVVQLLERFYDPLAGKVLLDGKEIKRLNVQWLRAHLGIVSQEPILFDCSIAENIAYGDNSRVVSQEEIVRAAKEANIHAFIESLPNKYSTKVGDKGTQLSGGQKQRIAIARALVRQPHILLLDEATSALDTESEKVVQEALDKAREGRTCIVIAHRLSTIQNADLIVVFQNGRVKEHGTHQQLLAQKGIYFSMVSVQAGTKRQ

The compound `Cc1nc2nc(C)n(CCN3CCOCC3)c(=O)c2c(-c2cccc([N+](=O)[O-])c2)c1C(=O)CCCCCCCCCCN1CCC(c2ccccc2)(c2ccccc2)CC1` [Compound 1, 3,4-Dihydro-2,7-dimethyl-3-[2-(4-morpholinyl)ethyl]-5-3-nitrophenyl)-4-oxo-6-[1-oxo-11-(4,4-diphenyl-1-piperidinyl)undecyl]-pyrido[2,3-d]pyrimidine dihydrochloride] had an EC50 of 0.0251 µM.

In the case of `Cc1nc2nc(C)n(-c3ccccc3)c(=O)c2c(-c2cccc([N+](=O)[O-])c2)c1C(=O)CCCCCCCCCCN1CCC(c2ccccc2)(c2ccccc2)CC1` [Compound 2, 3,4-Dihydro-2,7-dimethyl-5-(3-nitrophenyl)-4-oxo-3-phenyl-6-[1-oxo-11-(4,4-diphenyl-1-piperidinyl)undecyl]pyrido[2,3-d]pyrimidine hydrochloride], the EC50 was 0.0631 µM.

Compound `CCCn1cnc2nc(C)c(C(=O)CCCCCCCN3CCC(c4ccccc4)(c4ccccc4)CC3)c(-c3cccc([N+](=O)[O-])c3)c2c1=O` [Compound 3] gave an EC50 of 0.0251 µM.

`CCCCCn1cnc2nc(C)c(C(=O)CCCCCCCN3CCC(c4ccccc4)(c4ccccc4)CC3)c(-c3cccc([N+](=O)[O-])c3)c2c1=O` [Compound 4] had an EC50 of 0.02 µM.

With `Cc1nc2nc(C)n(CCN3CCOCC3)c(=O)c2c(-c2cccc([N+](=O)[O-])c2)c1C(=O)CCCCCCCN1CCC(c2ccccc2)(c2ccccc2)CC1` [Compound 5], under “CCRF-VCR 1000 and CCRF-CEM cells, Rhodamine 123 0.8 mg/l, 30 min preincubation, 1 h at 37° C., RPMI without fetal calf serum, pH 7.3”, the pEC50 is on record as 6.8.

In turn, `CCCCn1cnc2nc(C)c(C(=O)CCCCCCCCCCN3CCC(c4ccccc4)(c4ccccc4)CC3)c(-c3cccc([N+](=O)[O-])c3)c2c1=O` [Compound 6] gave an EC50 of 0.0158 µM.

Compound `CCCn1cnc2nc(C)c(C(=O)CCCCCCCCCCN3CCC(c4ccccc4)(c4ccccc4)CC3)c(-c3cccc([N+](=O)[O-])c3)c2c1=O` [Compound 7] had an EC50 of 0.0501 µM.

Turning to `CCCCCn1cnc2nc(C)c(C(=O)CCCCCCCCCCN3CCC(c4ccccc4)(c4ccccc4)CC3)c(-c3cccc([N+](=O)[O-])c3)c2c1=O` [Compound 8], the EC50 was 0.0316 µM.

Consider `Cc1nc2ncn(-c3ccccc3)c(=O)c2c(-c2cccc([N+](=O)[O-])c2)c1C(=O)CCCCCCCCCCN1CCC(c2ccccc2)(c2ccccc2)CC1` [Compound 9], for which the EC50 is 0.0631 µM.

On to `Cc1nc2ncn(Cc3ccccc3)c(=O)c2c(-c2cccc([N+](=O)[O-])c2)c1C(=O)CCCCCCCCCCN1CCC(c2ccccc2)(c2ccccc2)CC1` [Compound 10], for which the midpoint of the response, the EC50, lay at 0.0251 µM.

As to `COc1ccc(-n2cnc3nc(C)c(C(=O)CCCCCCCCCCN4CCC(c5ccccc5)(c5ccccc5)CC4)c(-c4cccc([N+](=O)[O-])c4)c3c2=O)cc1` [Compound 11], a half-maximal effect (EC50) was put at 0.0398 µM.

As to `Cc1nc2ncn(CCN3CCOCC3)c(=O)c2c(-c2cccc([N+](=O)[O-])c2)c1C(=O)CCCCCCCCCCN1CCC(c2ccccc2)(c2ccccc2)CC1` [Compound 12], the EC50 is 0.0251 µM.

`CCCn1c(C)nc2nc(C)c(C(=O)CCCCCCCN3CCC(c4ccccc4)(c4ccccc4)CC3)c(-c3cccc([N+](=O)[O-])c3)c2c1=O` [Compound 13] showed an EC50 of 0.0501 µM.

In turn, `CCCCCn1c(C)nc2nc(C)c(C(=O)CCCCCCCN3CCC(c4ccccc4)(c4ccccc4)CC3)c(-c3cccc([N+](=O)[O-])c3)c2c1=O` [Compound 14] gave an EC50 of 0.0794 µM.

`Cc1nc2nc(C)n(CCCN3CCOCC3)c(=O)c2c(-c2cccc([N+](=O)[O-])c2)c1C(=O)CCCCCCCCCCN1CCC(c2ccccc2)(c2ccccc2)CC1` [Compound 15] had a 50% effective concentration (EC50) of 0.0316 µM.

For the compound `Cc1nc2nc(C)n(CCN3CCCCC3)c(=O)c2c(-c2cccc([N+](=O)[O-])c2)c1C(=O)CCCCCCCCCCN1CCC(c2ccccc2)(c2ccccc2)CC1` [Compound 16], the EC50 was 0.0794 µM.

Consider `Cc1nc2ncn(CCCN3CCOCC3)c(=O)c2c(-c2cccc([N+](=O)[O-])c2)c1C(=O)CCCCCCCCCCN1CCC(c2ccccc2)(c2ccccc2)CC1` [Compound 17], for which the response was half-maximal at 0.0251 µM (EC50).

Consider `Cc1nc2nc(C)n(CCN3CCCCC3)c(=O)c2c(-c2cccc([N+](=O)[O-])c2)c1C(=O)CCCCCCCN1CCC(c2ccccc2)(c2ccccc2)CC1` [Compound 18], for which the EC50 is 0.0501 µM.

On to `CCCCn1c(C)nc2nc(C)c(C(=O)CCCCN3CCC(c4ccccc4)(c4ccccc4)CC3)c(-c3cccc([N+](=O)[O-])c3)c2c1=O` [Compound 19], for which the EC50 was 0.1 µM.

The compound `CCCCn1c(C)nc2nc(C)c(C(=O)CCCCCCCN3CCC(c4ccccc4)(c4ccccc4)CC3)c(-c3cccc([N+](=O)[O-])c3)c2c1=O` [Compound 20] gave an EC50 of 0.0316 µM.

The compound `CCCCn1cnc2nc(C)c(C(=O)CCCCCCCN3CCC(c4ccccc4)(c4ccccc4)CC3)c(-c3cccc([N+](=O)[O-])c3)c2c1=O` [Compound 21] gave an EC50 of 0.0501 µM.

`Cc1nc2ncn(Cc3ccccc3)c(=O)c2c(-c2cccc([N+](=O)[O-])c2)c1C(=O)CCCCCCCN1CCC(c2ccccc2)(c2ccccc2)CC1` [Compound 22] showed an EC50 of 0.0398 µM.

The compound `Cc1nc2nc(C)n(Cc3ccccc3)c(=O)c2c(-c2cccc([N+](=O)[O-])c2)c1C(=O)CCCCCCCN1CCC(c2ccccc2)(c2ccccc2)CC1` [Compound 23] gave an EC50 of 0.0501 µM.
